Measurements published in publication PMC6112376, “Comprehensive Analyses and Prioritization of Tox21 10K Chemicals Affecting Mitochondrial Function by in-Depth Mechanistic Studies” (Environmental Health Perspectives, 2018).
Counter-ions that a name gives are not always drawn. Like-named read-outs stand apart in the source and are kept apart here.

Assays:
rat primary hepatocytes [1] = system: rat primary hepatocytes
HepG2 cells [2] = settings: cited from earlier work
HepG2 cells [3] = test: cells; settings: Homo sapiens; for IC50: HepG2, read-out: MMP assays IC50 (µM) HepG2; for Emax: HepG2, read-out: MMP assays efficacy (%) HepG2
rat primary hepatocytes [4] = test: MMP assay in rat primary hepatocytes; settings: for IC50: read-out: MMP assays IC50 (µM) Rat Hepatocytes
[5] = read-out: MMP assays IC50 (µM) qHTS-HepG2
[6] = read-out: MMP assays IC50 (µM), qHTS-HepG2

Compound | MMP assays efficacy (%) Rat Hepatocytes (rat primary hepatocytes [1]) | MMP assays efficacy (%) qHTS-HepG2 (HepG2 cells [2]) | IC50 (HepG2 cells [2]; [5]) | IC50 (HepG2 cells [3]) | Emax (HepG2 cells [3]) | IC50 (rat primary hepatocytes [4]; Rattus norvegicus, Hepatocyte) | IC50 (HepG2 cells [2]; [6]) | MMP assays IC50 (µM) Rat Hepatocytes (rat primary hepatocytes [4]) | MMP assays IC50 (µM) qHTS-HepG2 (HepG2 cells [2]) | IC50 (rat primary hepatocytes [4])
CCOC(=O)C1(c2ccccc2)CCN(CCC(C#N)(c2ccccc2)c2ccccc2)CC1 [Diphenoxylate hydrochloride] | -81±36% | -56±8% | 20.7 ± 1.19 µM | 17.3 µM | 71% | 19.4 µM | – | – | – | –
CC(=O)Oc1ccc(C(c2ccc(OC(C)=O)cc2)c2ccccn2)cc1 [Bisacodyl] | -73±12% | -67±5% | 14.8 ± 3.63 µM | 7.74 µM | 95% | 18.4 ± 13 µM | – | – | – | –
CCCCCCCCCCCCc1ccc(O)cc1 [Compound 4-Dodecylphenol] | -53±17% | -96±3% | 3.18 ± 0.58 µM | 5.01 µM | 102% | 25.1 ± 21.8 µM | – | – | – | –
COc1cc(NS(C)(=O)=O)ccc1Nc1c2ccccc2nc2ccccc12 [Amsacrine hydrochloride] | -110±40% | -75±13% | 10.3 ± 2.45 µM | 56.2 µM | 110% | 37.6 ± 3.06 µM | – | – | – | –
CN(C)C(=S)SSC(=S)N(C)C [THIRAM] | -96±85% | -57±29% | – | 24.5 µM | 66% | 16.5 ± 20.3 µM | – | – | – | –
Nc1ccc(N)c2ccccc12 [1,4-Naphthalenediamine] | -44±17% | -88±2% | 0.2 ± 0.08 µM | 2 µM | 109% | 22.7 ± 8.75 µM | – | – | – | –
CC(C)CC(=O)C1C(=O)c2ccccc2C1=O [2-Isovaleryl-1,3-indanedione] | -107±61% | -99±5% | 5.24 ± 0.9 µM | 56.2 µM | 108% | 22.2 ± 11.1 µM | – | – | – | –
O=[N+]([O-])c1ccc(O/N=C/c2cc(Br)c(O)c(Br)c2)c([N+](=O)[O-])c1 [Bromofenoxim] | -114±9% | -108±7% | 1.08 ± 0.25 µM | 3.98 µM | 100% | 2.18 ± 0.86 µM | – | – | – | –
COC(=O)N(C(=O)N1CO[C@@]2(C(=O)OC)Cc3cc(Cl)ccc3C2=N1)c1ccc(OC(F)(F)F)cc1 [Indoxacarb] | -88±26% | -83±20% | – | 15.3 µM | 57% | 34.4 ± 5.58 µM | 12.7 ± 3.65 µM | – | – | –
Clc1ccc(C(c2ccc(Cl)cc2)C(Cl)Cl)cc1 [p,p'-DDD] | -37±12% | -103±18% | – | 39.8 µM | 108% | 42.2 ± 19.8 µM | 15.2 ± 8.82 µM | – | – | –
O=C(N/N=C/c1ccc([N+](=O)[O-])o1)c1ccc(O)cc1 [Nifuroxazide] | -91±23% | -89±9% | – | 2.34 µM | 113% | 6.71 ± 1.54 µM | 1.57 ± 0.3 µM | – | – | –
CCCCCc1ccc(C)cc1O [Amylmetacresol] | inactive | -109±16% | 11.2 ± 0.65 µM | – | 115% | – | – | inactive | – | –
O=C1OC(c2ccc(O)cc2)(c2ccc(O)cc2)c2ccccc21 [Phenolphthalein] | -98±24% | -103±24% | – | 25.1 µM | 132% | 39.5 ± 16.9 µM | 42.8 ± 2.74 µM | – | – | –
O=P(OCC(Br)CBr)(OCC(Br)CBr)OCC(Br)CBr (stereo not drawn) [Tris(2,3-dibromopropyl) phosphate] | -91±11% | -99±7% | – | 50.1 µM | 110% | 44 ± 10.7 µM | 45.8 ± 8.72 µM | – | – | –
C(=NC1CCCCC1)=NC1CCCCC1 [Dicyclohexylcarbodiimide] | inactive | -69±18% | 0.3 ± 0.2 µM | 0.0178 µM | 39% | – | – | inactive | – | –
CC(=O)O[C@H]1C[C@H](O[C@H]2[C@@H](O)C[C@H](O[C@H]3[C@@H](O)C[C@H](O[C@H]4CC[C@@]5(C)[C@H](CC[C@@H]6[C@@H]5C[C@@H](O)[C@]5(C)[C@@H](C7=CC(=O)OC7)CC[C@]65O)C4)O[C@@H]3C)O[C@@H]2C)O[C@H](C)[C@H]1O[C@@H]1O[C@H](CO)[C@@H](O)[C@H](O)[C@H]1O [Lanatoside C] | inactive | -51±10% | – | 0.31 µM | 92% | – | 0.78 ± 0.14 µM | inactive | – | –
O=c1cc(-c2ccc(O)cc2)oc2cc(O)cc(O)c12 [Apigenin] | -66±35% | -98±2% | 1.61 µM | 3.55 µM | 88% | 28.9 ± 9.26 µM | – | – | – | –

Compound | MMP assays efficacy (%) Rat Hepatocytes (rat primary hepatocytes [1]) | MMP assays efficacy (%) qHTS-HepG2 (HepG2 cells [2]) | IC50 (HepG2 cells [2]; [5]) | IC50 (HepG2 cells [3]) | Emax (HepG2 cells [3]) | IC50 (rat primary hepatocytes [4]; Rattus norvegicus, Hepatocyte) | IC50 (HepG2 cells [2]; [6]) | MMP assays IC50 (µM) Rat Hepatocytes (rat primary hepatocytes [4]) | MMP assays IC50 (µM) qHTS-HepG2 (HepG2 cells [2]) | IC50 (rat primary hepatocytes [4])
CCCN(CC1CC1)c1c([N+](=O)[O-])cc(C(F)(F)F)cc1[N+](=O)[O-] [Profluralin] | -37±10% | -76±20% | – | 39.8 µM | 58% | 25.1 ± 35.4 µM | 21.7 ± 8.04 µM | – | – | –
ClC1=C(Cl)C2(Cl)C3C(Cl)C=CC3C1(Cl)C2(Cl)Cl (stereo not drawn) [Heptachlor] | inactive | – | – | 31.6 µM | 87% | – | 39.4 ± 17.9 µM | inactive | – | –
CCC(C)c1cc([N+](=O)[O-])cc([N+](=O)[O-])c1OC(=O)OC(C)C (stereo not drawn) [Dinobuton] | -115±54% | -105±4% | 4.33 ± 1.24 µM | 7.94 µM | 101% | 5.74 ± 4.21 µM | – | – | – | –
CS(=O)(=O)Nc1ccc([N+](=O)[O-])cc1Oc1ccccc1 [Nimesulide] | -117±42% | -101±6% | – | 4.16 µM | 120% | 2.74 ± 0.35 µM | 3.87 ± 0.23 µM | – | – | –
Oc1c(Cl)cc(Cl)cc1Sc1cc(Cl)cc(Cl)c1O [Sodium bithionolate] | inactive | -123±11% | – | 0.89 µM | 116% | – | 0.91 ± 0.78 µM | inactive | – | –
O=P(Oc1ccccc1)(Oc1ccccc1)Oc1ccccc1 [Triphenyl phosphate] | -56±38% | -98±14% | – | 1.26 µM | 48% | 28.9 ± 9.26 µM | 1.38 ± 1.48 µM | – | – | –
CCN(CC)C(=O)[C@@H]1C=C2c3cccc4[nH]cc(c34)C[C@H]2N(C)C1 [Lysergide] | inactive | -54±2% | – | 17.3 µM | 48% | – | 9.03 ± 1.87 µM | inactive | – | –
CCc1ccccc1O [Compound 2-Ethylphenol] | inactive | inactive | – | 15.8 µM | 72% | – | – | inactive | inactive | –
Cl[Si](Cl)(c1ccccc1)c1ccccc1 [Dichlorodiphenylsilane] | inactive | -106±4% | 13 ± 9.66 µM | 22.4 µM | 109% | – | – | inactive | – | –
Clc1ccccc1-c1ccccc1Cl [2,2'-Dichlorobiphenyl] | inactive | -71±13% | 31.1 ± 12.3 µM | 63.1 µM | 76% | – | – | inactive | – | –
CC(C)OC(=O)C(O)(c1ccc(Cl)cc1)c1ccc(Cl)cc1 [Chloropropylate] | -66±32% | -105±14% | 26.3 ± 3.64 µM | 44.7 µM | 102% | 43.8 ± 10.9 µM | – | – | – | –
O=[N+]([O-])c1ccc2c3c(cccc13)CC2 [Compound 5-Nitroacenaphthene] | -78±25% | -82±23% | 34.4 ± 20.4 µM | 56.2 µM | 50% | 24 ± 16.2 µM | – | – | – | –
CC(=O)O[C@H]1C[C@H](O[C@H]2[C@@H](O)C[C@H](O[C@H]3[C@@H](O)C[C@H](OC4CC[C@@]5(C)[C@H](CC[C@@H]6[C@@H]5CC[C@]5(C)[C@@H](C7=CC(=O)OC7)CC[C@]65O)C4)O[C@@H]3C)O[C@@H]2C)O[C@H](C)[C@H]1O[C@@H]1O[C@H](CO)[C@@H](O)[C@H](O)[C@H]1O (stereo partly drawn) [Lanatoside A] | inactive | -69±2% | – | 0.14 µM | 91% | – | 0.43 ± 0.04 µM | inactive | – | –
C[C@]12CC[C@H]3C(=CCc4cc(O)ccc43)[C@@H]1CCC2=O [Equilin] | -47±10% | -97±4% | 24.3 ± 4.6 µM | 31.6 µM | 126% | 39.1 ± 15.5 µM | – | – | – | –
O=c1c(O)c(-c2ccc(O)c(O)c2)oc2cc(O)cc(O)c12 [Quercetin] | -62±28% | -94±8% | – | 3.16 µM | 96% | – | 2.69 ± 2.26 µM | – | – | 15.1 ± 6.79 µM
Brc1ccc(Oc2ccc(Br)cc2Br)c(Br)c1 [2,2'4,4'-Tetrabromodiphenyl ether] | -42±10% | -119±10% | 22.6 ± 5.18 µM | 39.8 µM | 104% | 25.6 ± 34.7 µM | – | – | – | –
